In patent US20250250265A1, “BENZOTHIAZOLE-PHENYLSULFONYL-PIPERIDINE ANALOGS AS ACTIVATORS OF NACYLPHOSPHATIDYLETHANOLAMINE HYDROLYZING PHOSPHOLIPASE D” (priority 2022, published 2025):
Entries after “also recorded” stand apart in the source; their conditions may differ.

Assays:
[1] = biological target: T1, NAPE-PLD activity of RAW264.7 macrophages (Mus musculus, UniProt Q8BH82); test: Cell-based NAPE-PLD activity in RAW264.7 macrophages (PED-A1 with orlistat); conditions: for Emax, Nape-pld activity in RAW264.7 cells: FIG. 17A, PED-A1; for effect on NAPE-PLD activity in RAW264.7 cells: graded concentrations (FIG. 17A); for In-cell NAPE-PLD activity in RAW 264.7 (10 μM) with PED-A1 or flame-NAPE as substrate: Table 3; for 10 μM Mϕ % NAPE-PLD activity: Table 2, 10 μM compound, vehicle = 100%
T1 construct: endogenous in cells; host or cells: RAW264.7
T1 sequence (Q8BH82 1-396): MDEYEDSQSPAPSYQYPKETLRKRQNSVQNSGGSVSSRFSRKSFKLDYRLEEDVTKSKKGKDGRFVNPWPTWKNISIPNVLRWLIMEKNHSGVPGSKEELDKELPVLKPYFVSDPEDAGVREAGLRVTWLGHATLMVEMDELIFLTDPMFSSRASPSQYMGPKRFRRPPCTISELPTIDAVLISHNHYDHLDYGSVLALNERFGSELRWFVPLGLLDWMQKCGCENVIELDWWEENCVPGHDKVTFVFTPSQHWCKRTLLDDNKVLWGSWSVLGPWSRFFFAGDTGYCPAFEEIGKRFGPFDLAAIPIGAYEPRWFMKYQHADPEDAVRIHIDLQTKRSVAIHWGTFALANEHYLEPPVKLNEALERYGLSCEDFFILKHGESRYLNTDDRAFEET
Method: NAPE-PLD activity was measured in cells as previously described, except that FluoroBrite DMEM (Gibco A1896701) was used as media. See Zarrow et al., J. Lipid Res. 63(1): 100156 (2022). For RAW264.7 assays, PED-A1 (3.6 μM final) was used as the substrate with 10 μM orlistat added to inhibit PLA1 activity, while for HepG2 cells, flame-NAPE was used (with no orlistat added).

[2] = biological target: T2, Fatty Acid Amide Hydrolase (FAAH) (Homo sapiens, UniProt O00519); test: FAAH activity assay (Cayman Chemicals); format: biochemical; conditions: for inhibition of FAAH activity: graded concentrations up to 33 μM; for Remaining FAAH Activity (33 μM): Table 3; for inhibition at 33 µM: 33 μM compound, compared to vehicle (0%)
T2 construct: purchased Cayman Chemicals
T2 sequence (O00519 1-579): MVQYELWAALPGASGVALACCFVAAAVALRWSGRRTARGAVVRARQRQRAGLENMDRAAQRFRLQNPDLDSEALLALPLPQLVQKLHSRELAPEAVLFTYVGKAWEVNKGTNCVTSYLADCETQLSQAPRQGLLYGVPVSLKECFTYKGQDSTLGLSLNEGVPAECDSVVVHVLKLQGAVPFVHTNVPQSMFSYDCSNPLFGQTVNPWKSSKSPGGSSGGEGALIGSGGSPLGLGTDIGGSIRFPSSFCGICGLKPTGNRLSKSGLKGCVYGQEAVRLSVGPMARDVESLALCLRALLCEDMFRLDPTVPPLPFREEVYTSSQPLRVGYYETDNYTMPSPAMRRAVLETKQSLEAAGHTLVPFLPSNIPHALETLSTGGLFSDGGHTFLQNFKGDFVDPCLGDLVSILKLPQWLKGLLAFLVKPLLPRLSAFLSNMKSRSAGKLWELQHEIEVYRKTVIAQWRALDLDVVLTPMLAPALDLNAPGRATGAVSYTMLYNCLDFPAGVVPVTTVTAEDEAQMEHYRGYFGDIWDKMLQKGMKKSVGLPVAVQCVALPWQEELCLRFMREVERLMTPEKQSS
Method: (§1) Concentration response curves were plotted for VU534 for the enzymes fatty acid amide hydrolase (FAAH) and soluble epoxide hydrolase (sEH).
(§2) The fluorescence interference assay was performed using the same method as the HTS assay, but with BODIPY-FL C5 (Thermo Fisher Scientific) used in place of PED-A1. sEH and FAAH activity assays were performed according to the manufacturer's specifications (Cayman Chemicals).

[3] = biological target: T3, soluble epoxide hydrolase (sEH) (Homo sapiens, UniProt P34913); test: sEH activity assay (Cayman Chemicals); format: biochemical; conditions: for inhibition of sEH activity: graded concentrations; for Remaining sEH Activity (33 μM): Table 3; for inhibition at 33 µM: 33 μM compound, compared to vehicle (0%)
T3 construct: purchased Cayman Chemicals
T3 sequence (P34913 1-555): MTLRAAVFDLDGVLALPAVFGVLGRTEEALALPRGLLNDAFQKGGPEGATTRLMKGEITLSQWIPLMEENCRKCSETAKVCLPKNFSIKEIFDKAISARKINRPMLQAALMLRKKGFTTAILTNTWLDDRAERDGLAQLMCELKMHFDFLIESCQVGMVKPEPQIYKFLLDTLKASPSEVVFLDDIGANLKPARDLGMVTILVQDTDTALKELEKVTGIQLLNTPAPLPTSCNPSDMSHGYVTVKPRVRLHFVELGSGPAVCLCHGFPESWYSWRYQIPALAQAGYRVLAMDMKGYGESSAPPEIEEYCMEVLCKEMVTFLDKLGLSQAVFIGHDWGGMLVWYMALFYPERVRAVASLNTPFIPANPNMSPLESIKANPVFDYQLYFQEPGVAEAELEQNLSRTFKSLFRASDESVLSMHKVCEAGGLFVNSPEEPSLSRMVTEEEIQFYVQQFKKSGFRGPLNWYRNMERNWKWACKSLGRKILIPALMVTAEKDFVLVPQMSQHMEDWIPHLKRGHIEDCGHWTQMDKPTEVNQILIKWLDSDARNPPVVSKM
Method: as §1, §2

[4] = tested on: RAW264.7 mouse macrophages; test: Cytotoxicity (MTT) in RAW264.7 macrophages; format: cell-based; conditions: for cytotoxicity in RAW264.7 cells: up to / at 30 μM; for % viability RAW 264.7 (33 μM): Table 3; for 33 μM Mϕ % Viability: Table 2, 33 μM compound
Method: Cytotoxicity was measured using MTT as previously described except that the studies used 96-well plates with 100 μL of 0.3 mg/mL MTT solution was added after 24 h of treatment and then replaced after 3 h with 0.1 M HCl in isopropanol. See Aggarwal et al., J. Biol. Chem. 295(21): 7289-7300 (2020). Viability was expressed as percent absorbance at 560 nm relative to vehicle controls.

| SMILES | Remaining FAAH Activity (33 μM) [2] [%] | Remaining sEH Activity (33 μM) [3] [%] | In-cell NAPE-PLD activity in RAW 264.7 (10 μM) with PED-A1 or flame-NAPE as substrate [1] [%] | 10 μM Mϕ % NAPE-PLD activity [1] [%] | inhibition at 33 µM [2] [%] | inhibition at 33 µM [3] [%] | Emax, Nape-pld activity in RAW264.7 cells [1] [fold] | effect on NAPE-PLD activity in RAW264.7 cells [1] | inhibition of FAAH activity [2] | inhibition of sEH activity [3] | cytotoxicity in RAW264.7 cells [4] | % viability RAW 264.7 (33 μM) [4] [%] | 33 μM Mϕ % Viability [4] [%] |
| --- | --- | --- | --- | --- | --- | --- | --- | --- | --- | --- | --- | --- | --- |
| Cc1ccc(C)c2sc(NC(=O)C3CCN(S(=O)(=O)c4ccc(F)cc4)CC3)nc12 [VU533] |  |  |  |  |  |  | 2.2 | significantly increased NAPE-PLD activity | only weak inhibition | neither VU533 nor VU233 significantly inhibited seH | no cytotoxicity |  |  |
| Cc1ccc2sc(NC(=O)C3CCN(S(=O)(=O)c4ccc(F)cc4)CC3)nc2c1C [VU517] | 90 | 29 | 123 | 125 | < 15 | 70 |  |  |  |  |  | 83 | 80 |
| Cc1cc2nc(NC(=O)C3CCN(S(=O)(=O)c4ccc(F)cc4)CC3)sc2cc1C [VU536] | 75 | 49 | 155 | 155 | 25 | 50 |  |  |  |  |  | 114 | >85 |
| Cc1cccc2sc(NC(=O)C3CCN(S(=O)(=O)c4cccnc4)CC3)nc12 [MRJ-058C] |  |  |  | 115 | < 15 | 50 |  |  |  |  |  |  | >85 |
| Cc1cccc2sc(NC(=O)C3CCN(S(=O)(=O)c4cnn(C)c4)CC3)nc12 [VU210] | 89 | 81 | 98 |  |  |  |  |  |  |  |  | 86 |  |
| Cc1cc(C)c2sc(NC(=O)C3CCN(S(=O)(=O)c4ccc(F)cc4)CC3)nc2c1 [VU534, N-(5,7-Dimethylbenzo[d]thiazol-2-yl)-1-((4-fluorophenyl)sulfonyl)piperidine-4-carboxamide] | 86 | 27 | 139 | 140 | < 15 | 75 | 1.6 | significantly increased NAPE-PLD activity | no inhibition of FAAH; also recorded: only weak inhibition; also recorded: does not inhibit | inhibition of sEH; also recorded: modest inhibition; also recorded: inhibits | minimal cytotoxicity | 89 | >85 |
| Cc1cccc2sc(NC(=O)C3CCN(S(=O)(=O)c4cnn(C)c4)CC3)nc12 [MRJ-058D] |  |  |  | 100 | < 15 | 20 |  |  |  |  |  |  | >85 |
| Cc1ccc2nc(NC(=O)C3CCN(S(=O)(=O)c4ccc(F)cc4)CC3)sc2c1 [VU486] | 89 | 60 | 107 | 105 | < 15 | 40 |  |  |  |  |  | 89 | >85 |
| Cn1cc(S(=O)(=O)N2CCC(C(=O)Nc3nc4ccccc4s3)CC2)cn1 [VU227] | 97 | 63 | 102 |  |  |  |  |  |  |  |  | 106 |  |
| Cc1ccc(S(=O)(=O)N2CCC(C(=O)Nc3nc4c(C)cc(C)cc4s3)CC2)cc1 [VU575] | 90 | 55 | 107 | 105 | < 15 | 45 |  |  |  |  |  | 85 | >85 |

Continued, in another order:

| Remaining FAAH Activity (33 μM) [2] [%] | Remaining sEH Activity (33 μM) [3] [%] | In-cell NAPE-PLD activity in RAW 264.7 (10 μM) with PED-A1 or flame-NAPE as substrate [1] [%] | 10 μM Mϕ % NAPE-PLD activity [1] [%] | inhibition at 33 µM [2] [%] | inhibition at 33 µM [3] [%] | SMILES | Emax, Nape-pld activity in RAW264.7 cells [1] [fold] | effect on NAPE-PLD activity in RAW264.7 cells [1] | inhibition of FAAH activity [2] | inhibition of sEH activity [3] | cytotoxicity in RAW264.7 cells [4] | % viability RAW 264.7 (33 μM) [4] [%] | 33 μM Mϕ % Viability [4] [%] |
| --- | --- | --- | --- | --- | --- | --- | --- | --- | --- | --- | --- | --- | --- |
| 90 | 117 |  |  |  |  | O=C(Nc1nc2ccccc2s1)C1CCN(S(=O)(=O)c2ccc(F)c(Cl)c2)CC1 [VU233] |  | no significant effect; also recorded: not significant | only weak inhibition | neither VU533 nor VU233 significantly inhibited seH | no cytotoxicity | 111 |  |
| 86 | 48 | 114 |  |  |  | Cc1cccc2sc(NC(=O)C3CCN(S(=O)(=O)c4cccnc4)CC3)nc12 [VU211] |  |  |  |  |  | 88 |  |
| 79 | 59 |  |  |  |  | O=C(Nc1nc2ccccc2s1)C1CCN(S(=O)(=O)c2cccnc2)CC1 [VU203] |  |  |  |  |  | 57 |  |
| 88 | 62 | 136 |  |  |  | Cc1cccc2sc(NC(=O)C3CCN(S(=O)(=O)c4ccc(F)c(Cl)c4)CC3)nc12 [VU209] |  |  |  |  |  | 88 |  |
|  |  |  | 135 | < 15 | 50 | Cc1cccc2sc(NC(=O)C3CCN(S(=O)(=O)c4ccc(F)c(Cl)c4)CC3)nc12 [MRJ-058B] |  |  |  |  |  |  | >85 |
